Experimental data reported in patent US20040198833A1, “Acetylenic sulfonamide derivatives” (priority 2000, published 2004).

- melting point: 92 to 93 °C
Compound: CC(C)S(=O)(=O)NCC(C)(F)c1ccc(C#CCCCCO)cc1 (stereo not shown) [Example 11, {2-fluoro-2-[4-(6-hydroxyhex-1-ynyl)phenyl]propyl}[(methylethyl)sulfonyl]amine]
